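Briefly, cells in 96-well plates were exposed to five compound concentrations for 48 h, and endpoints were estimated by linear interpolation. The concentration for 50% growth inhibition is given as GI50.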 The source made the active and inactive calls. Rule as the data show it: active = GI50 up to about 1.1 µM and inactive = higher.
Tests used:
Assay in all cases: DTP human tumour cell line panel, 48 h
A549 = tested on: A549
UACC-62 = tested on: UACC-62
BT-549 = tested on: BT-549
SNB-19 = tested on: SNB-19
MDA-MB-231 = tested on: MDA-MB-231
NCI-H460 = tested on: NCI-H460
UACC-257 = tested on: UACC-257
HCT-15 = tested on: HCT-15
IGROV-1 = tested on: IGROV-1
DU-145 = tested on: DU-145
OVCAR-5 = tested on: OVCAR-5
SW-620 = tested on: SW-620
SF-295 = tested on: SF-295
SN12C = tested on: SN12C
M14 = tested on: M14
NCI-H23 = tested on: NCI-H23
OVCAR-3 = tested on: OVCAR-3
SR = tested on: SR
NCI-H522 = tested on: NCI-H522
SNB-75 = tested on: SNB-75

Structure (SMILES)	GI50 (A549)	GI50 (UACC-62)	GI50 (BT-549)	GI50 (SNB-19)	GI50 (MDA-MB-231)	GI50 (NCI-H460)	GI50 (UACC-257)	GI50 (HCT-15) [µM]	GI50 (IGROV-1)	GI50 (DU-145)	GI50 (OVCAR-5)	GI50 (SW-620)	GI50 (SF-295)	GI50 (SN12C)	GI50 (M14)	GI50 (NCI-H23)	GI50 (OVCAR-3)	GI50 (SR)	GI50 (NCI-H522)	GI50 (SNB-75)
COc1ccc2nccc(SCC(=O)O)c2c1	> 100 µM (inactive)	> 100 µM (inactive)	> 100 µM (inactive)	> 100 µM (inactive)	> 100 µM (inactive)	> 100 µM (inactive)	> 100 µM (inactive)	> 100	> 100 µM (inactive)	> 100 µM (inactive)	> 100 µM (inactive)	> 100 µM (inactive)	> 100 µM (inactive)	> 100 µM (inactive)	> 100 µM (inactive)	> 100 µM (inactive)	> 100 µM (inactive)	> 100 µM (inactive)	> 100 µM (inactive)	
CC(C)(C)OC(=O)CN1CCNCCN(CC(=O)OC(C)(C)C)CC1	> 100 µM (inactive)	> 100 µM (inactive)	> 100 µM (inactive)	> 100 µM (inactive)	> 100 µM (inactive)	> 100 µM (inactive)	> 100 µM (inactive)	> 100	> 100 µM (inactive)	> 100 µM (inactive)	> 100 µM (inactive)		> 100 µM (inactive)	> 100 µM (inactive)	> 100 µM (inactive)		> 100 µM (inactive)	> 100 µM (inactive)	56.9 µM (inactive)	12.8 µM (inactive)
O=C1NC(N2CCCC(CO)C2)=N/C1=C\c1ccccc1 (stereo not given)	> 100 µM (inactive)	> 100 µM (inactive)	> 100 µM (inactive)	> 100 µM (inactive)	> 100 µM (inactive)		> 100 µM (inactive)	> 100	> 100 µM (inactive)	> 100 µM (inactive)	> 100 µM (inactive)	> 100 µM (inactive)	> 100 µM (inactive)	> 100 µM (inactive)	> 100 µM (inactive)	> 100 µM (inactive)	> 100 µM (inactive)	> 100 µM (inactive)	> 100 µM (inactive)	> 100 µM (inactive)
COC1OC(=O)C(OC)C(OC)C1OC (stereo not given)	> 100 µM (inactive)	> 100 µM (inactive)	40.5 µM (inactive)	> 100 µM (inactive)	> 100 µM (inactive)	> 100 µM (inactive)	> 100 µM (inactive)	> 100	> 100 µM (inactive)	> 100 µM (inactive)	> 100 µM (inactive)	> 100 µM (inactive)	> 100 µM (inactive)	> 100 µM (inactive)	> 100 µM (inactive)		> 100 µM (inactive)	> 100 µM (inactive)	> 100 µM (inactive)	> 100 µM (inactive)
CC(C)(C)OC(=O)NCCCCC1NC(=O)[C@@H]2Cc3c([nH]c4ccccc34)C(c3ccccc3)N2C1=O (stereo not given in full)	38.4 µM (inactive)	23.4 µM (inactive)	21.9 µM (inactive)	50.1 µM (inactive)	27.4 µM (inactive)	30.4 µM (inactive)	35.6 µM (inactive)	31.1	40.3 µM (inactive)	49.2 µM (inactive)	53.8 µM (inactive)	54 µM (inactive)	22 µM (inactive)	28.8 µM (inactive)	28.6 µM (inactive)	25.9 µM (inactive)	19 µM (inactive)	13.6 µM (inactive)	23 µM (inactive)	
O=c1oc2ncccc2n1Cc1ccc([N+](=O)[O-])cc1	> 100 µM (inactive)	> 100 µM (inactive)	38.1 µM (inactive)		> 100 µM (inactive)	> 100 µM (inactive)	> 100 µM (inactive)	> 100	> 100 µM (inactive)	> 100 µM (inactive)	> 100 µM (inactive)	> 100 µM (inactive)	> 100 µM (inactive)	> 100 µM (inactive)	> 100 µM (inactive)	> 100 µM (inactive)	> 100 µM (inactive)	> 100 µM (inactive)	> 100 µM (inactive)	80.7 µM (inactive)
Oc1ccccc1CNCc1nc2ccccc2[nH]1	> 100 µM (inactive)	78.7 µM (inactive)	75.7 µM (inactive)	> 100 µM (inactive)	71.9 µM (inactive)		> 100 µM (inactive)	3.01	> 100 µM (inactive)	> 100 µM (inactive)	> 100 µM (inactive)	55.3 µM (inactive)	45.8 µM (inactive)	> 100 µM (inactive)	86.3 µM (inactive)	> 100 µM (inactive)	33.7 µM (inactive)	50 µM (inactive)	> 100 µM (inactive)	57.4 µM (inactive)
Cc1cc(C)c(C#N)c(SC(=S)NC(=O)c2ccccc2)n1	> 100 µM (inactive)	> 100 µM (inactive)	> 100 µM (inactive)	> 100 µM (inactive)	> 100 µM (inactive)	> 100 µM (inactive)	> 100 µM (inactive)	> 100	> 100 µM (inactive)	> 100 µM (inactive)	> 100 µM (inactive)	> 100 µM (inactive)		> 100 µM (inactive)	> 100 µM (inactive)	> 100 µM (inactive)		> 100 µM (inactive)	> 100 µM (inactive)	1.53 µM (inactive)
